Laboratory results taken from patent US7807654B2, “Compositions and methods for treatment of mitochondrial diseases” (Wellstat Therapeutics Corporation, priority 1998, dated 2010).

What was measured:
[1] = system: mice given intrastriatal QA; experiment: Quinolinic acid (QA) model of excitotoxicity; assay type: in vivo, Swiss mice; conditions: TAU 4 g/kg bw p.o. b.i.d.
[2] = biological target: cytochrome oxidase (Complex IV) (Homo sapiens, UniProt P00395); conditions: Brown G C, Mol. Cell. Biochem. 174:189-192, 1997; cited from earlier work
MPTP treated mice [3] = experiment: MPTP model of Parkinson's disease, first study
MPTP treated mice [4] = experiment: MPTP model of Parkinson's disease, second study; assay type: in vivo, C57/BL6 mice; conditions: MPTP b.i.d. for 2 days, sacrificed on day 9, mean ± SEM
Experimental: A second study using MPTP (25 mg/kg i.p. b.i.d. for 2 days) was performed. […] TAU or vehicle was given orally (dose of TAU=4 g/kg bw b.i.d.) starting the day before MPTP administration and ending on day 8. Mice were sacrificed on day 9.

[5] = system: Normal human neural progenitor (NHNP) cells; experiment: Survival of differentiated NHNP cells without glucose and with azide (LDH/MTT); assay type: cell-based; conditions: no glucose, sodium azide 0, 2, 4 and 8 mM, 20 hours (FIG. 16)
Experimental: NHNP cells derived from fetal brain were obtained from Clonetics (Walkersville, Md.; cat# CC-2598). The NHNP cells can be differentiated into neurons, glial cells, endothelial cells or microglial cells. […] Rockville, Md.) and hLIF (R&D System, Cat. 250-L-050. […] NHNP cells, passage 3-14 were plate in 96 well plates at 10 k cells/well and differentiated for 10 days. On the day of the experiment, cells were washed with DMEM without glucose, then incubated 20 hours in 100 μl of DMEM, no glucose and dialyzed 1% FBS (Life Technology Cat. 26300-061). […] Cell survival was assessed by the ratio of extracellular lactate dehydrogenase (LDH)/intracellular total dehydrogenase activity (MTT assay). Each condition was assayed in triplicate or quadruplicate. […] Extracellular LDH was assayed with 50 μl of supernatant using the Cytotoxicity Assay Kit (CytoTox 96 Non-Radioactive Cytotoxicity Assay; Promega, Cat. G1780. Madison, Wis.) according to kit instructions and read OD at 490 nm. After removing medium from the NHNP cells, 100 μl of assay medium (DMEM, no glucose and dialyzed 1% FBS) was added back to the cells. MTT was assayed in cells according to the kit instructions using Cell Proliferation Assay Kit (Promega, Cat. G4100. Madison, Wis.). Dye solution (15 μl) was added to each well and incubated 4 hours at 37° C. […] OD was read at 570 nm.

3NP treated mice [6] = experiment: 3NP model with TAU, creatine or coenzyme Q10: rotarod; assay type: in vivo, CD-1 mice
Experimental: (§1) Retired male CD-1 mice, 7-9 months of age, (Strain: Cr:NIH (S); Source: NCI) weighing 30-40 g were housed singly throughout the study. The animals were kept on a 12-hour light/dark cycle, with food and water continuously available. The animals were acclimated to our facility for seven days before experimentation. The mice were randomly assigned treatment groups.
(§2) The mice were given 3NP at a dose of 40, 40, 50, 50, 60 and 60 mg/kg i.p. on days 1-6 and 50 mg/kg i.p. on days […] was made up at 4, 5 or 6.0 mg/ml in sterile water (pH to 7.4 with 1.0 NaOH) and 0.1 ml/10 g BW was given (i.p) to each mouse at 3-4 PM.
(§3) The dosing of TAU (Nagase & Co., Ltd., Chemicals Second Division, 5-1, Nihonbashi-Kobunacho, Chuo-Ku, Tokyo 103, Japan; Lot 103 H 0060) was mixed into the rodent chow at 6% weight/weight. Creatine (Sigma) was mixed into the chow at 2% (weight/weight) that is previously reported to be the optimal dose (Matthews, Yang et al. 1998). Coenzyme Q10 (Sigma) was also provided in the chow at a dose 200 mg/kg chow) previously shown to be effective (Matthews, Yang et al. 1998). […]
The Rotarod apparatus (San Diego Instruments, San Diego, Calif.) was used to measure fore- and hindlimb motor coordination and balance. […] The latency to fall off the rotarod within this time period was recorded. […]
(§4) Data were analyzed by one- or two-way ANOVA followed by comparison of treatments by the Tukey test. […]

3NP treated mice [7] = experiment: 3NP model with TAU, creatine or coenzyme Q10: mortality and body weight; assay type: in vivo, CD-1 mice; conditions: for mortality due to 3NP treatment: experiments 1 and 2 (FIGS. 1 and 2), 6% TAU, 2% creatine, coenzyme Q10 200 mg/kg chow
Experimental: as §1
The mice were given 3NP at a dose of 40, 40, 50, 50, 60 and 60 mg/kg i.p. on days 1-6 and 50 mg/kg i.p. on days 5-12.
as §2
The dosing of TAU (Nagase & Co., Ltd., Chemicals Second Division, 5-1, Nihonbashi-Kobunacho, Chuo-Ku, Tokyo 103, Japan; Lot 103 H 0060) was mixed into the rodent chow at 6% weight/weight. Creatine (Sigma) was mixed into the chow at 2% (weight/weight) that is previously reported to be the optimal dose (Matthews, Yang et al. 1998). Coenzyme Q10 (Sigma) was also provided in the chow at a dose 200 mg/kg chow) previously shown to be effective (Matthews, Yang et al. 1998).
• n=9-12/group • Vehicle+Vehicle • Vehicle+3NP • TAU+3NP • Creatine+3NP • TAU and Creatine+Vehicle
• (n=8-10/group) • Vehicle+Vehicle • Vehicle+3NP • TAU+3NP • Coenzyme Q10+3NP • TAU and Coenzyme Q10+Vehicle
• (n=8-10/group) • Vehicle+Vehicle • Vehicle+3NP • 8% TAU+Vehicle • 2% TAU+3NP • 4% TAU+3NP • 8% TAU+3NP
Data were analyzed by one- or two-way ANOVA followed by comparison of treatments by the Tukey test. Data are represented as mean±SEM.

3NP treated mice [8] = experiment: 3NP model with TAU, creatine or coenzyme Q10: locomotor activity; assay type: in vivo, CD-1 mice
Experimental: as §1, §2
as §3, with “1998).” for “1998). Coenzyme Q10 (Sigma) was also provided in the chow at a dose 200 mg/kg chow) previously shown to be effective (Matthews, Yang et al. 1998).”
The Photobeam Activity System (San Diego Instruments, San Diego, Calif.) was used to measure spontaneous activity. […] Spontaneous activity was quantified by placing mice in the Photobeam Activity System for a period of 30 min. […]
as §4

3NP treated mice [9] = experiment: 3-nitropropionic acid (3NP) model of Huntington's disease; assay type: in vivo, Swiss mice
Experimental: Male 6-8 month old Swiss mice (National Cancer Institute; NCI, Frederick, Md.) were treated with 3NP (65 mg/kg i.p.) daily for 4 days to induce mortality, neuronal cell loss and behavioral impairment with n=8/group. […] On day 9, the mice were perfuse fixed with 10% buffered formalin and processed for silver staining to detect neuronal damage. […] There was no mortality in the 3NP+TAU group, but 3 of 8 mice died in the vehicle+3NP group.
Behavioral scoring of the 3NP treated mice was to determine whether there was any motor impairment at anytime during the study. There were 88% of the control+3NP treated mice with behavioral impairment indicated by gross observation. A decreased incidence of impairment of only 50% was found in the TAU+3NP treated mice.
The silver staining was analyzed by a pathologist blinded to the identity of tissue samples. […] However, in the control+3NP treated mice, silver staining of synaptic terminals in the striatal area (caudate/putamen area) and substantia nigra was pronounced. Silver impregnation of axons and/or synaptic terminals in the thalamus, deep mesencephalon and/or reticular formation (medulla) was also found in […] of the control+3NP treated mice. The substantia nigra projects to the striatum and these areas are especially vulnerable to damage by 3NP. The damage to the substantia nigra and striatum was prevented by TAU.

3NP treated mice [10] = experiment: 3-nitropropionic acid (3NP) model of epilepsy; assay type: in vivo, CD-1 mice
From the text: 3-nitropropionic acid (3NP) is a mitochondrial toxin that acts by inhibiting Complex II of the respiratory chain; it is used to induce brain lesions similar to those characteristic of Huntington's disease. Seizures can also be induced by the use of 3NP as a model of epilepsy and mitochondrial dysfunction. Urbanska et al., Eur J Pharmacol, 359: 55-8 (1998). Male CD-1 mice (National Cancer Institute, NCI, Frederick. Md.) weighing between […] were used throughout. Mice were divided into groups of 5 and animals for each group were randomly chosen from different cages to avoid possible influence of age. The mice were maintained on a 12 hr light dark cycle with free access to water and food. All experiments were performed during the light period between 9:00 and 16:00 hr. Mice (n=17-20) were given 160 mg/kg 3NP and followed for seizures. 3NP was made up at 16 mg or 18 mg/ml in sterile water (pH: 7.4). 3NP was administered i.p. in a volume of 0.1 m/10 g body weight. […] Seizures were assessed similar to the methods previously described (Roberts & Keith, J Pharmacol Exp Ther, 270:505-11, 1994; Urbanska et al., Eur J Pharmacol, 359:55-8, 1998).
Behavioral observations were performed within 120 min following application of 3-NP. Three major categories of convulsive seizure response were been considered and recorded: • 1. Clonic movements: the movements of the forelimbs accompanied by facial twitching; • 2. Explosive clonic movements: the movement of all four limbs involving running, jumping and bouncing; • 3. Tonic response: including tonic flexion and tonic extension of the all four limbs.
Mortality rate was evaluated at 120 min after 3NP injection.

taxol-treated mice = experiment: Taxol-induced neuropathy, tail-flick latency; assay type: in vivo; conditions: nine days after initiation of taxol 21.6 mg/kg/day i.p. for 6 days; oral triacetyluridine 4000 mg/kg b.i.d.
Experimental: Two groups of 10 mice each were treated with taxol, 21.6 mg/kg/day for 6 consecutive days by intraperitoneal injection. An additional group of 10 mice received injections of vehicle alone. One of the groups of taxol-treated mice received oral triacetyluridine, 4000 mg/kg b.i.d. Nine days after the initiation of taxol treatments, nociceptive sensory deficits were tested by determining tail-flick latency after exposure of the tip of the tail to focused thermal radiation with an infrared heat lamp. In this system, delays in the tail-flick response to radiant heat correlate with sensory nerve deficits.

[11] = 160 mg/kg 3NP i.p., TAU 4 g/kg p.o. 2 hours prior, within 120 min

O=C(O)c1cccnc1C(=O)O [QA, Quinolinic acid]
percent of mice surviving the 7 days ([1]; 50 nmoles QA bilaterally in striatum): 64% | percent of mice surviving the 7 days ([1]; 100 nmoles QA bilaterally in striatum): 4%

[N]=O [Nitric oxide]
concentration that inhibits cytochrome oxidase / mitochondrial respiration [2]: ~1 µM

CN1CC=C(c2ccccc2)CC1 [MPTP, 1-methyl-4-phenyl-1,2,3,6-tetrahydropyridine]
mortality (MPTP treated mice [3]; MPTP 30 mg/kg i.p. b.i.d. for 1.5 days, TAU 4 g/kg p.o. b.i.d.): 71.4% | Striatal DA, MPTP-treated mice (MPTP treated mice [3]; first study, eight days after stopping MPTP, mean ± SEM): 9.2 ± 2.2 ng DA/mg protein | Striatal DA, MPTP-treated mice (MPTP treated mice [4]): 15.9 ± 2.2 ng DA/mg protein

O=c1ccn([C@@H]2O[C@H](CO)[C@@H](O)[C@H]2O)c(=O)[nH]1 [Uridine, uridine]
uridine concentration required for robust protection of cells [5]: ≥ 50 µM

CN(CC(=O)O)C(=N)N [creatine]
impairment of rotarod performance at 5 RPM due to 3NP (3NP treated mice [6]; experiment 1 (FIG. 10)): significantly (p<0.01) | mortality due to 3NP treatment (3NP treated mice [7]): not | decrease in activity due 3NP treatment (3NP treated mice [8]; experiment 1 (FIG. 7)): not attenuated

O=C(O)CC[N+](=O)[O-] [3NP, 3-nitropropionic acid]
mortality due to 3NP (3NP treated mice [9]; 3NP 65 mg/kg i.p. daily for 4 days, TAU 4 g/kg bw p.o. b.i.d., n=8/group): 3 of 8 | mice with behavioral (motor) impairment by gross observation (3NP treated mice [9]; at anytime during the study): 88% | mice with silver impregnation of axons and/or synaptic terminals in thalamus, deep mesencephalon and/or reticular formation (3NP treated mice [9]; day 9): 80% | neuronal damage by silver staining (striatal area, substantia nigra) (3NP treated mice [9]; day 9, blinded pathologist): pronounced | Latency to clonic seizure (3NP treated mice [10]; 160 mg/kg 3NP i.p., TAU 4 g/kg p.o. 2 hours prior, mean ± SEM): 23.8 ± 0.7 min | % Clonic seizures (3NP treated mice [10]; [11]): 90.0% | % Running seizures (3NP treated mice [10]; [11]): 42.9% | % Mortality (3NP treated mice [10]; at 120 min after 3NP injection): 35%

COC1=C(OC)C(=O)C(C/C=C(\C)CC/C=C(\C)CC/C=C(\C)CC/C=C(\C)CC/C=C(\C)CC/C=C(\C)CC/C=C(\C)CC/C=C(\C)CC/C=C(\C)CCC=C(C)C)=C(C)C1=O [coenzyme Q10]
impairment in rotarod performance at 10 RPM due 3NP treatment (3NP treated mice [6]; experiment 2 (FIG. 11)): attenuated | loss in body weight due to 3NP (3NP treated mice [7]; experiment 2 (FIG. 5)): attenuated | mortality due to 3NP treatment (3NP treated mice [7]): decreased mortality | decrease in activity due 3NP treatment (3NP treated mice [8]; experiment 2 (FIG. 8)): attenuated

CC(=O)O[C@H]1C(=O)[C@@]2(C)[C@H]([C@H](OC(=O)c3ccccc3)[C@]3(O)C[C@H](OC(=O)[C@H](O)[C@@H](NC(=O)c4ccccc4)c4ccccc4)C(C)=C1C3(C)C)[C@]1(OC(C)=O)CO[C@@H]1C[C@@H]2O [Taxol, taxol]
Tail flick latency (taxol-treated mice): 16.0 ± 3.1 s
